Data: US8546381B2, “Bridged heterocyclic compounds and methods of use” (Medivation Technologies, Inc., priority 2008, dated 2013)

Legend:
[1] = molecular target: T1, rat adrenergic α1A receptor (Rattus norvegicus, UniProt P43140); test: Adrenergic α1A radioligand binding ([3H]Prozosin); details: for inhibition at 1 µM: read-out: Adrenergic α1A, inhibition of ligand binding (1 μM)
T1 construct: obtained from Wistar Rat submaxillary glands; from tissue; host or cells: Wistar rat submaxillary glands
T1 sequence (P43140 1-466): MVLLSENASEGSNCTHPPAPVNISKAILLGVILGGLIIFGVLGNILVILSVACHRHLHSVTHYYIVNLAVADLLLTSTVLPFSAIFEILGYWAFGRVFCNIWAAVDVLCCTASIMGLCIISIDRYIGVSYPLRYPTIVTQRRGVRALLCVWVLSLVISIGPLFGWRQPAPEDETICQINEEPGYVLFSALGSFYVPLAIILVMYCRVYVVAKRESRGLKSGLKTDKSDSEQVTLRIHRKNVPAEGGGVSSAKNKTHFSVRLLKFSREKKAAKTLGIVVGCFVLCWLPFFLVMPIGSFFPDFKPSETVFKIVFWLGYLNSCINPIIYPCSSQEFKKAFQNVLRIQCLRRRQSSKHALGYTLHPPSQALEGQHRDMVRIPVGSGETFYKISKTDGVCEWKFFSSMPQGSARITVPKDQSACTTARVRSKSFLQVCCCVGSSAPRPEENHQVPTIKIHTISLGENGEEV
Protocol: To evaluate in radioligand binding assays the activity of compounds of the invention, rat adrenergic α1A receptor obtained from Wistar Rat submaxillary glands (Michel, A. D. et al., Br. J. Pharmacol. 98:883, 1989) in a modified Tris-HCl buffer (50 mM Tris-HCl buffer, pH 7.4, 0.5 mM EDTA) was used. Compounds of the invention were incubated with 0.25 nM [^3H]Prozosin for 60 minutes at 25° C. Non-specific binding was estimated in the presence of 10 μM phentolamine. Receptor proteins were filtered and washed, the filters were then counted to determine [^3H]Prozosin specifically bound. Compounds of the invention were screened at 1 μM or lower, using 1% DMSO as vehicle. Compounds of the invention were tested in this biochemical assay and percent inhibition of specific binding was determined.

[2] = tested on: rat central imidazoline I2 receptor; test: Central imidazoline I2 radioligand binding ([3H]Idazoxan); details: compound at 1 μM; inhibition of specific [3H]Idazoxan binding
Protocol: To evaluate in radioligand binding assays the activity of compounds of the invention, rat central imidazoline I2 receptor obtained from Wistar Rat cerebral cortex (Brown, C. M. et al., Br. J. Pharmacol. 99:803, 1990) in a modified Tris-HCl buffer (50 mM Tris-HCl buffer, pH 7.4, 0.5 mM EDTA) was used. Compounds of the invention were incubated with 2 nM [^3H]Idazoxan for 30 minutes at 25° C. Non-specific binding was estimated in the presence of 1 μM Idazoxan. Receptor proteins were filtered and washed, the filters were then counted to determine [^3H]Idazoxan specifically bound. Compounds were screened at 1 μM or lower, using 1% DMSO as vehicle. Compounds of the invention were tested in this biochemical assay and percent inhibition of specific binding was determined.

[3] = molecular target: T2, human recombinant serotonin (5-Hydroxytryptamine) 5-HT5A receptor (Homo sapiens, UniProt P47898); test: Serotonin 5-HT5A radioligand binding ([3H]LSD); details: read-out: Serotonin 5-HT5A, inhibition of ligand binding (1 μM)
T2 construct: expressed in transfected cells; host or cells: CHO-K1 cells
T2 sequence (P47898 whole entry): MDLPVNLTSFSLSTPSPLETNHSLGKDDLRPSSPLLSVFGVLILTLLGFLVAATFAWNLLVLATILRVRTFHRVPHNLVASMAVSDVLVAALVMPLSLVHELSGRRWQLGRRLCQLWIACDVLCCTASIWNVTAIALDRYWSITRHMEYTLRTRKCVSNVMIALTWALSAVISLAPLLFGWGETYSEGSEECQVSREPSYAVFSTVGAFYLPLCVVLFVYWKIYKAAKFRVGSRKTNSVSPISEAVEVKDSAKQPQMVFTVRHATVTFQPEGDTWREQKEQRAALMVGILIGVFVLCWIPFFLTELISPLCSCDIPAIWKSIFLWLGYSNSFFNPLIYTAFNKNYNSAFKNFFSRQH
Protocol: To evaluate in radioligand binding assays the activity of compounds of the invention, human recombinant serotonin (5-Hydroxytryptamine) 5-HT5A receptor expressed in Chinese hamster ovary (CHO-K1) cells (Rees, S. et al., FEBS Lett. 355:242, 1994) in a modified Tris-HCl buffer (50 mM Tris-HCl, pH 7.4, 10 mM MgCl2, 0.5 mM EDTA) was used. Compounds of the invention were incubated with 1.7 nM [^3H]Lysergic acid diethylamide (LSD) for 60 minutes at 37° C. Non-specific binding was estimated in the presence of 100 μM Serotonin (5-HT). Receptor proteins were filtered and washed, the filters were then counted to determine [^3H]LSD specifically bound. Compounds were screened at 1 μM or lower, using 1% DMSO as vehicle. Compounds of the invention were tested in this biochemical assay and percent inhibition of specific binding was determined. Biochemical assay results are presented as the percent inhibition of specific binding in Table 4.

[4] = molecular target: T3, human recombinant serotonin (5-Hydroxytryptamine) 5-HT7 receptor (Homo sapiens, UniProt P34969); test: Serotonin 5-HT7 radioligand binding ([3H]LSD); details: for inhibition at 1 µM: read-out: Serotonin 5-HT7, inhibition of ligand binding (1 μM)
T3 construct: expressed in transfected cells; host or cells: CHO cells
T3 sequence (P34969 whole entry): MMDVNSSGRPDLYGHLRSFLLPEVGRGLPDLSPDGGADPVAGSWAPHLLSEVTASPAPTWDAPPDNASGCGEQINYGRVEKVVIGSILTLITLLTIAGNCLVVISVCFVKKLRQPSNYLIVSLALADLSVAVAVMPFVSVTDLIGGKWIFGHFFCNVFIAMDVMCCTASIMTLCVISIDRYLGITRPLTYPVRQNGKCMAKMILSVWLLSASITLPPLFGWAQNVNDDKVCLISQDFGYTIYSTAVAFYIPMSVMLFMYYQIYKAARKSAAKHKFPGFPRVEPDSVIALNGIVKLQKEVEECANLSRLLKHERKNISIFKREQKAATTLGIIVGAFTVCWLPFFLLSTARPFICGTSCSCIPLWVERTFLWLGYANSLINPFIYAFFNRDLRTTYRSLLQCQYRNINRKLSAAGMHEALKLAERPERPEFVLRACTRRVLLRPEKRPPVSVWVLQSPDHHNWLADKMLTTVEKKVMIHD
Protocol: To evaluate in radioligand binding assays the activity of compounds of the invention, human recombinant serotonin (5-Hydroxytryptamine) 5-HT7 receptor expressed in Chinese hamster ovary (CHO) cells (Roth, B. L. et al., J. Pharmacol. Exp. Ther. 268:1403, 1994; Shen, Y. et al., J. Biol. Chem. 268:18200, 1993) in a modified Tris-HCl buffer (50 mM Tris-HCl, pH 7.4, 10 mM MgCl2, 0.5 mM EDTA) was used. Compounds of invention were incubated with 5.5 nM [^3H] Lysergic acid diethylamide (LSD) for 2 hours at 25° C. Non-specific binding was estimated in the presence of 10 μM Serotonin (5-HT). Receptor proteins were filtered and washed, the filters were then counted to determine [^3H]LSD specifically bound. Compounds were screened at 1 μM or lower, using 1% DMSO as vehicle. Biochemical assay results are presented as the percent inhibition of specific binding in Table 4.

[5] = molecular target: T4, human recombinant serotonin (5-Hydroxytryptamine) 5-HT2A receptor (Homo sapiens, UniProt P28223); test: Serotonin 5-HT2A radioligand binding ([3H]Ketanserin); details: read-out: Serotonin 5-HT2A, inhibition of ligand binding (1 μM)
T4 construct: expressed in transfected cells; host or cells: CHO-K1 cells
T4 sequence (P28223 whole entry): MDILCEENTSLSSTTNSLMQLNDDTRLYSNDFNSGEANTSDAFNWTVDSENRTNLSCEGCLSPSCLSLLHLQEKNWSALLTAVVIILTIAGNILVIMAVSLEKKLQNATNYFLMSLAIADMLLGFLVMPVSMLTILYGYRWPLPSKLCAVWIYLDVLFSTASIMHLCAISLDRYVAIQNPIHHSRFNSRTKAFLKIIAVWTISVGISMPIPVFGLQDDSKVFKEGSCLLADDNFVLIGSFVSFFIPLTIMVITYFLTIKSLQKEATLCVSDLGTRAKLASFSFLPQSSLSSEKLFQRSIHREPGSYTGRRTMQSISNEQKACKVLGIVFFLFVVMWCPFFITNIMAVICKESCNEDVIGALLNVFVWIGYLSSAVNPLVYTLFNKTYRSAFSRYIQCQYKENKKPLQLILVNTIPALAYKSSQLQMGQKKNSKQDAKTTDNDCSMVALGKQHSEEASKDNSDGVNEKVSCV
Protocol: To evaluate in radioligand binding assays the activity of compounds of the invention, human recombinant serotonin (5-Hydroxytryptamine) 5-HT2A receptor expressed in Chinese hamster ovary (CHO-K1) cells (Bonhaus, D. W. et al. Br. J. Pharmacol. 115:622, 1995; Saucier, C. and Albert, P. R., J. Neurochem. 68:1998, 1997) in a 50 mM Tris-HCl buffer, pH 7.4, was used. Compounds of the invention were incubated with 0.5 nM [^3H]Ketanserin for 60 minutes at 25° C. Non-specific binding was estimated in the presence of 1 μM Mianserin. Receptor proteins were filtered and washed, the filters were then counted to determine [^3H]Ketanserin specifically bound. Compounds were screened at 1 μM or lower, using 1% DMSO as vehicle. Biochemical assay results are presented as the percent inhibition of specific binding in Table 4.

Cc1ccc2c(c1)c1c(n2CCc2ccccc2)CC2CCC1N2C (stereo not drawn) [Compound 2]
inhibition at 0.03 µM ([1]; read-out: Adrenergic α1A, inhibition of ligand binding (0.03 μM)): 66% | inhibition at 0.3 µM ([1]; read-out: Adrenergic α1A, inhibition of ligand binding (0.3 μM)): 97% | inhibition at 1 µM [1]: 98% | Imidazoline I2 Central (1 μM), Percentage Inhibition [2]: 70% | inhibition at 1 µM [3]: 86% | inhibition at 0.003 µM ([4]; read-out: Serotonin 5-HT7, inhibition of ligand binding (3.0 nM)): 38% | inhibition at 0.03 µM ([4]; read-out: Serotonin 5-HT7, inhibition of ligand binding (0.03 μM)): 81% | inhibition at 1 µM [4]: 98% | inhibition at 1 µM [5]: 96%

CN1C2CCC1c1c(n(CCC(=O)N3CCCC3)c3ccc(Cl)cc13)C2 (stereo not drawn) [Compound 5]
Imidazoline I2 Central (1 μM), Percentage Inhibition [2]: 25%

CN1C2CCC1c1c(n(CCC(=O)N3CCOCC3)c3ccc(Cl)cc13)C2 (stereo not drawn) [Compound 13]
Imidazoline I2 Central (1 μM), Percentage Inhibition [2]: −7%

CN1C2CCC1c1c(n(CCc3ccc(Cl)cc3)c3ccc(F)cc13)C2 (stereo not drawn) [Compound 33]
Imidazoline I2 Central (1 μM), Percentage Inhibition [2]: 6%

CN1C2CCC1c1c(n(CCc3ccc(F)cc3)c3ccc(F)cc13)C2 (stereo not drawn) [Compound 35]
Imidazoline I2 Central (1 μM), Percentage Inhibition [2]: 33%

Cc1ccc2c(c1)c1c(n2CCc2ccccc2)CC2CCCC1N2C (stereo not drawn) [Compound 56]
inhibition at 1 µM [1]: 94% | Imidazoline I2 Central (1 μM), Percentage Inhibition [2]: 27% | inhibition at 1 µM [3]: 40% | inhibition at 1 µM [4]: 92% | inhibition at 1 µM [5]: 31%

CN1C2CCC1c1c(n(CCc3ccc(F)cc3)c3ccc(Cl)cc13)C2 (stereo not drawn) [Compound 57]
inhibition at 1 µM [1]: 90% | Imidazoline I2 Central (1 μM), Percentage Inhibition [2]: 8% | inhibition at 1 µM [3]: 48% | inhibition at 1 µM [4]: 94% | inhibition at 1 µM [5]: 79%

CN1C2CCC1c1c(n(CCc3ccc(Cl)cc3)c3ccc(Cl)cc13)C2 (stereo not drawn) [Compound 58]
inhibition at 1 µM [1]: 89% | Imidazoline I2 Central (1 μM), Percentage Inhibition [2]: 8% | inhibition at 1 µM [3]: 69% | inhibition at 1 µM [4]: 93% | inhibition at 1 µM [5]: 79%

CN1C2CCC1c1c(n(CC(=O)N3CCOCC3)c3ccc(Cl)cc13)C2 (stereo not drawn) [Compound 59, 2-(2-chloro-11-methyl-5,6,7,8,9,10-Hexahydro-7,10-iminocyclohept[b]indol-5-yl)-1-morpholinoethanone]
Imidazoline I2 Central (1 μM), Percentage Inhibition [2]: −8%

CN1C2CCC1c1c(n(CC(=O)N3CCCC3)c3ccc(Cl)cc13)C2 (stereo not drawn) [Compound 60]
Imidazoline I2 Central (1 μM), Percentage Inhibition [2]: 1%

Cc1ccc(CCn2c3c(c4cc(Cl)ccc42)C2CCC(C3)N2C)cc1 (stereo not drawn) [Compound 61]
Imidazoline I2 Central (1 μM), Percentage Inhibition [2]: 22%

Cc1ccc2c(c1)c1c(n2CCc2ccc(F)cc2)CC2CCC1N2C (stereo not drawn) [Compound 62]
Imidazoline I2 Central (1 μM), Percentage Inhibition [2]: 52%

CN1C2CCC1c1c(n(C#Cc3ccc(Cl)cc3)c3ccc(Cl)cc13)C2 (stereo not drawn) [Compound 142]
inhibition at 1 µM [4]: 57% | inhibition at 1 µM [5]: 98%

COc1ccc(C(C)(O)Cn2c3c(c4cc(Cl)ccc42)C2CCC(C3)N2C)cc1F (stereo not drawn) [Compound 160]
inhibition at 1 µM [4]: 75% | inhibition at 1 µM [5]: 95%

COc1ccc(C(C)(O)Cn2c3c(c4cc(C)ccc42)C2CCC(C3)N2C)cc1F (stereo not drawn) [Compound 161]
inhibition at 1 µM [4]: 69% | inhibition at 1 µM [5]: 96%

Cc1ccc2c(c1)c1c(n2C(=O)Cc2ccc(Cl)cc2)CC2CCC1N2C (stereo not drawn) [Compound 162]
inhibition at 1 µM [4]: 43% | inhibition at 1 µM [5]: 92%

C/C(=C\n1c2c(c3cc(C)ccc31)C1CCC(C2)N1C)c1ccc(Cl)cc1Cl (stereo not drawn) [Compound 163]
inhibition at 1 µM [4]: 87% | inhibition at 1 µM [5]: 94%
